Test [1] concerns LOLMU. Put plainly: active compound combinations, pre-emergence greenhouse test (Colby synergy). Format: in vivo, Lolium multiflorum. The source says: (§1) The culture containers used were plastic flowerpots containing loamy sand with approximately 5.8% of humus as the substrate. The seeds of the test plants were sown separately for each species.
(§2) For the pre-emergence treatment, the active compounds, which had been suspended or emulsified in water, were applied directly after sowing by means of finely distributing nozzles. The containers were irrigated gently to promote germination and growth and subsequently covered with transparent plastic hoods until the plants had rooted. This cover caused uniform germination of the test plants, unless this has been impaired by the active compounds.
(§3) The respective stated components A and B were formulated as a 5% by weight strength or 10% by weight strength emulsion concentrate, or a commercial formulation of component B was used, and, with addition of the amount of solvent system, introduced into the spray liquor used for applying the active compound. In the examples, the solvent used was water.
(§4) The test period extended over 20 or 21 days. During this time, the plants were tended, and their reactions to the treatments with the active compounds were monitored.
(§5) In the examples below, using the method of S. R. Colby (1967) “Calculating synergistic and antagonistic responses of herbicide combinations”, Weeds 15, p. 22ff., the value E, which is expected when the activity of the individual active compounds is only additive, was calculated.
(§6) If the value determined experimentally is higher than the value E calculated according to Colby, a synergistic effect is present.
(§7) Here, a.s.=active substance, based on 100% active compound. In the use examples 15 and 16, the values E calculated according to Colby are stated in brackets) ( ).
(§8) What was evaluated was the damage by the chemical compositions using a scale of from 0 to 100%, in comparison to the untreated control plants. 0 means no damage, and 100 means complete destruction of the plants.

For test [2], the system named is ALOMY. The description is as above. Format: in vivo, Alopecurus myosuroides.
Description: as §1, §2, §3, §4, §5, §6, §7, §8

Test [3] concerns SETFA. The test is described as above. Format: in vivo, Setaria faberi.
Description: as §1, §2, §3, §4, §5, §6, §7, §8

Test [4] deals with ECHCG. Briefly: greenhouse test, post-emergence treatment. Format: in vivo, Echinochloa crus-galli. The conditions noted are these: application rate 1.0 kg/ha, scale 0 to 100.
Description: as §1
(§9) For the post-emergence treatment, the test plants were first grown to a height of 3 to 15 cm, depending on the plant habit, and then treated with the active compounds which had been suspended or emulsified in water. For this purpose, the test plants were either sown directly and grown in the same containers, or they were first grown separately as seedlings and transplanted into the test containers a few days prior to treatment.
(§10) Depending on the species, the plants were kept at 10-25° C. or 20-35° C. The test period extended over 2 to 4 weeks. During this time, the plants were tended, and their response to the individual treatments was evaluated.
(§11) Evaluation was carried out using a scale from 0 to 100. 100 means no emergence of the plants, or complete destruction of at least the aerial moieties, and 0 means no damage, or normal course of growth. A good herbicidal activity is given at values of at least 70 and a very good herbicidal activity is given at values of at least 85.
(§12) The plants used in the greenhouse experiments belonged to the following species: […]

Test [5] relates to SETIT. Put plainly: greenhouse test, post-emergence treatment. The conditions noted are these: application rate 1.0 kg/ha, scale 0 to 100. Format: in vivo, Setaria italica.
Description: as §1, §9, §10, §11, §12

In test [6] the test system is SETFA. Briefly: greenhouse test, post-emergence treatment. Format: in vivo, Setaria faberi. The conditions noted are these: application rate 1.0 kg/ha, scale 0 to 100.
Description: as §1, §9, §10, §11, §12

The subject of test [7] is CHEAL. Put plainly: greenhouse test, post-emergence treatment. Format: in vivo, Chenopodium album. The conditions noted are these: application rate 0.5 kg/ha, scale 0 to 100.
Description: as §1, §9, §10, §11, §12

Where [8] appears, read: use example 14, application rate a.s. 31.25 g/ha.
[9] abbreviates: use example 14, application rate a.s. 62.5 g/ha.
The mark [10] stands for this setting: use example 14, application rate a.s. 125 g/ha.
Setting [11] is: use example 14, application rate a.s. 250 g/ha.
The mark [12] stands for this setting: use example 14, application rate a.s. 3.12 g/ha.
[13] abbreviates: use example 14, application rate a.s. 12.5 g/ha.
Where [14] appears, read: use example 14, application rate a.s. 25 g/ha.

As to `CCOc1ncccc1CC1C(=O)N(COC)C(C)(Cc2ccccc2)C(=O)N1C` (stereo not drawn) [II-26], the “Herbicidal activity in % after 20 days against LOLMU” value in test [1] (setting [8]) amounted to 0%; in test [1] (setting [9]), 15%; in test [1] (setting [10]) it was 98%. For the same molecule, the “Herbicidal activity in % after 20 days against ALOMY” value is 30% in test [2] (setting [8]), 60% in test [2] (setting [9]), 90% in test [2] (setting [10]) and 95% in test [2] (setting [11]). The “Herbicidal activity in % after 20 days against SETFA” value in test [3] (setting [8]) was 10%; in test [3] (setting [10]), 75%; in test [3] (setting [11]), 100%.

Regarding `Cn1nc(C(F)(F)F)c(CS(=O)(=O)C2=NOC(C)(C)C2)c1OC(F)F` [pyroxasulfone], the figures for the “Herbicidal activity in % after 20 days against LOLMU” value in test [1] (setting [12]), in test [1] (setting [13]) and in test [1] (setting [14]) were 15%, 75% and 80%, respectively. In addition, the “Herbicidal activity in % after 20 days against ALOMY” value in test [2] (setting [12]) is listed as 25%; in test [2] (setting [13]), 95%; in test [2] (setting [14]) it was 95%. The “Herbicidal activity in % after 20 days against SETFA” value in test [3] (setting [12]) amounted to 0%; in test [3] (use example 14, application rate a.s. 6.25 g/ha), 25%; in test [3] (setting [14]) it was 95%.

In the case of `CCNc1nc(Cl)nc(NC(C)C)n1` [atrazine], the “Herbicidal activity in % after 20 days against LOLMU” value in test [1] (application rate a.s. 125 g/ha) stood at 0%; in test [1] (application rate a.s. 250 g/ha) it was 20%. In addition, the results for the “Herbicidal activity in % after 20 days against ALOMY” value in test [2] (application rate a.s. 125 g/ha) and in test [2] (application rate a.s. 250 g/ha) were 35% and 65%, respectively.

For `C=CCCN1C(=O)C(=Cc2ccccc2C#N)N(C)C(=O)C1(C)Cc1ccccc1` (stereo not drawn) [I-19], the “herbicidal activity against ECHCG” value in test [4] was “very good (a very good herbicidal activity is given at values of at least 85)”. In test [5], the “herbicidal activity against SETIT” value is recorded as “very good (a very good herbicidal activity is given at values of at least 85)”.

Turning to `CN1C(=O)C(C)(Cc2ccccc2)N(CC2CC2)C(=O)C1=Cc1ccccc1C#N` (stereo not drawn) [I-25], the “herbicidal activity against SETFA” value in test [6] was “very good (a very good herbicidal activity is given at values of at least 85)”.

With `CCCCCN1C(=O)C(=Cc2ccccc2C#N)N(C)C(=O)C1(C)Cc1ccccc1` (stereo not drawn) [I-21], the “herbicidal activity against CHEAL” value in test [7] is given as “very good (a very good herbicidal activity is given at values of at least 85)”.

These data come from patent US20110183848A1, “Piperazine Compounds With Herbicidal Effect” (BASF SE, priority 2008, published 2011).
